Reference: PubChem BioAssay (NCI)
Values joined by “and” are separate entries in the source; they are usually repeats but may differ in a detail not shown here. Equal entries are not always repeated.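 Grown in 96-well plates, cells were treated for 48 hours with each compound at five concentrations. Insufficient inhibition: endpoint recorded as highest concentration tested. GI50 = concentration required for 50% inhibition of growth. TGI denotes the concentration required for complete inhibition of growth.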

Tests used:
Test in all cases: NCI-60 cell line screen, 48 h
[1] = test system: NCI-H226 lung
[2] = test system: LOX IMVI melanoma
[3] = test system: BT-549 breast
[4] = test system: RPMI-8226 leukemia
[5] = test system: K-562 leukemia
[6] = test system: MALME-3M melanoma
[7] = test system: HL-60(TB) leukemia
[8] = test system: MOLT-4 leukemia
[9] = test system: SK-OV-3 ovarian
[10] = test system: UACC-257 melanoma

Structure (SMILES) | GI50 [1] | TGI [1] | GI50 [2] | TGI [2] | GI50 [3] | TGI [3] | GI50 [4] | TGI [4] | GI50 [5] | TGI [5] | GI50 [6] | TGI [6] | GI50 [7] | TGI [7] | GI50 [8] | TGI [8] | GI50 [9] | TGI [9] | GI50 [10] | TGI [10]
CC(C)c1c(C(=O)Nc2ccccc2)c(-c2ccccc2)c(-c2ccc(F)cc2)n1CC[C@@H](O)C[C@@H](O)CC(=O)O | 25.5 µM | > 100 µM | 3.11 µM | 22.9 µM | 15.6 µM | 41.7 µM | 16.6 µM | > 100 µM | 31.2 µM | > 100 µM | 52.8 µM | > 100 µM | 20.9 µM | > 96.7 µM | 28.8 µM | 99.2 µM | 63.7 µM | > 100 µM | 41.5 µM | > 100 µM
O=C1Nc2ccc(I)cc2/C1=C/c1cc(Br)c(O)c(Br)c1 | > 25 µM and 27.8 µM | > 25 µM and 81.2 µM | > 17.5 µM and 16.2 µM | > 79 µM | > 17.9 µM and 8.07 µM | > 25 µM and 32.7 µM | 15.3 µM and 6.81 µM | > 100 µM | > 51.9 µM | > 100 µM | 5.9 µM and 4.62 µM | 22.2 µM and > 64.5 µM | > 47.8 µM | > 100 µM | > 60.1 µM | > 100 µM | > 25 µM and 17.9 µM | > 25 µM and 47.5 µM | > 20.7 µM and 16.5 µM | > 25 µM and 69.2 µM
COc1cccc(-c2cc(-c3ccc(Nc4nc(Nc5ccc(Cl)cc5)nc(Nc5ccc(Cl)cc5)n4)cc3)nc(N)c2C#N)c1 | 2.16 µM | 5.78 µM | 2.22 µM | 6.44 µM | 2.44 µM | 10.9 µM | 1.77 µM | > 27.9 µM | 1.52 µM | 5.53 µM | 1.69 µM | 3.45 µM | 0.838 µM | 8.23 µM | 1.63 µM | 4.93 µM | 24.9 µM | > 63.9 µM | 2.03 µM | 4.8 µM
FC(F)(F)c1ccc(-c2cnc(-c3nn[nH]n3)nc2NC2CCCCCC2)cc1 | > 10 µM | > 10 µM | > 10 µM | > 10 µM | > 10 µM | > 10 µM | > 10 µM | > 10 µM | > 10 µM | > 10 µM | > 10 µM | > 10 µM | > 10 µM | > 10 µM | > 10 µM | > 10 µM | > 10 µM | > 10 µM | > 10 µM | > 10 µM
Cc1ccc(CNc2ccc(Cl)cc2NCc2ccc(C)c(O)c2)cc1O | 10 µM | 22.1 µM | 6.93 µM | 13.5 µM | 6.96 µM | 14.1 µM | 6.75 µM | 21.9 µM | 5.98 µM | 18 µM | 6.2 µM | 14.7 µM | 7.65 µM | 19.2 µM | 3.34 µM | 14.7 µM | 8.24 µM | 15.2 µM | 8.12 µM | 15.6 µM
Cc1cc(C)c(CNC(=O)c2cc(Cl)c3c(c2C)O[C@@](C)(C2CCC(N(C)C)CC2)O3)c(=O)[nH]1 (some centres undefined) | 93 µM | > 100 µM | 47.8 µM | > 100 µM | 42 µM | > 100 µM | 38 µM | > 100 µM | 41.6 µM | > 100 µM | 45.3 µM | > 100 µM | 61.5 µM | > 100 µM | 58.6 µM | > 100 µM | – | – | 95.3 µM | > 100 µM
Nc1nc(N)c2nc(CNc3ccc(C(=O)NC(CCC(=O)O)C(=O)O)cc3)cnc2n1 (centres undefined) | – | > 100 µM | < 0.01 µM | > 100 µM | 0.399 µM and 0.213 µM | > 100 µM | 0.0519 µM and 0.0313 µM | > 100 µM | < 0.01 µM | > 100 µM | 0.921 µM | > 100 µM | < 0.01 µM | > 100 µM | 0.0375 µM and < 0.0131 µM | > 100 µM | 0.0755 µM and < 0.01 µM | > 100 µM | 0.0942 µM and 0.0723 µM | > 100 µM
CC(C)OC(=O)OCOP(=O)(OCOC(=O)OC(C)C)C1CCCN(O)C1=O (centres undefined) | 1.36 µM | > 100 µM | 2.3 µM | > 100 µM | 0.468 µM | 11.7 µM | 0.737 µM | 14.5 µM | 0.81 µM | > 100 µM | 0.856 µM | > 100 µM | 2.48 µM | > 100 µM | 1.34 µM | > 100 µM | 1.84 µM | > 100 µM | 49.1 µM | > 100 µM
COc1ccc(-c2cc(-c3ccc(Cl)cc3)c(C#N)c(=O)n2CCCCCC(=O)Nc2ccccc2N)cc1 | 4.58 µM | 78.9 µM | 1.64 µM | 3.45 µM | 4.49 µM | 43.7 µM | 1.43 µM | 7.28 µM | 3.37 µM | > 100 µM | 3.19 µM | 20.3 µM | 2.6 µM | 7.12 µM | 5.16 µM | > 100 µM | 5.36 µM | 38.4 µM | – | –
CCN(CC)CCN1C(=O)c2cccc3cc(N)cc(c23)C1=O | – | 36.6 µM | – | – | – | 40.4 µM | – | 39.8 µM | – | 44.2 µM | – | 26.1 µM | – | 50.5 µM | – | > 100 µM | – | 69.3 µM | – | 25.7 µM
CN(C)CCCn1c2c(c3ccc(N4CCNCC4)cc3c1=O)C(=O)c1ccccc1-2 | 0.564 µM | 2.9 µM | 0.145 µM | 0.481 µM | 1.27 µM | 2.77 µM | 0.271 µM | 0.978 µM | 0.833 µM | 2.55 µM | 1.42 µM | 3.46 µM | 1.17 µM | 3.05 µM | 0.0979 µM | 0.922 µM | 1.05 µM | 3.51 µM | 1.69 µM | 3.74 µM
CCCN1CCCC(c2ccc(Nc3nc(Nc4cc(F)ccc4C(N)=O)c4cc[nH]c4n3)c(OC)c2)C1 (centres undefined) | 3.04 µM | 6.68 µM | 0.588 µM | 5.49 µM | 3.74 µM | 7.4 µM | 3.65 µM | 10.8 µM | 0.825 µM | 5.59 µM | 2.69 µM | 6.34 µM | 0.0156 µM | 4.82 µM | 3.8 µM | 11.1 µM | 2.81 µM | 5.83 µM | 0.188 µM | 4.54 µM
